Earlier results, collected in paper PMC3544362 (Journal of medicinal chemistry, 2012).
Read-outs that look alike come from different tables or passages of the source. One block for each molecule: values may come before it.

Tests used:
[1] = presumably rapid in vivo hydrolysis, ref [31]–[32]
[2] = rat, 60 min p.i., ref [32]
[3] = Sprague-Dawley rats, 5 min p.i.; ref [12]
[4] = Wistar rats, 60 min p.i., ref [16]

heart uptake (Sprague-Dawley rats, 60 min p.i., ref [17], [46]): 3.3 %ID/g | liver concentration (Wistar rats, 10 min p.i., ref [16]): 0.99 %ID/g | heart uptake [4]: 2.06 %ID/g | liver concentration [4]: 0.38 %ID/g
SMILES: CC(C)(C)n1ncc(OCc2ccc(COCC[18F])cc2)c(Cl)c1=O [Flurpiridaz F 18]

SMILES: CCN(CC)c1ccc2c(-c3ccccc3C(=O)OCC[18F])c3ccc(=[N+](CC)CC)cc-3oc2c1 [[^18F]3, 2-[^18F]fluoroethyl rhodamine B]
accumulation in mouse myocardium [1]: did not accumulate in mouse myocardium | Heart/blood ([2]; tissue ratio): 25.8 | Blood [2]: 0.08 ± 0.03 %ID/g | Bone [2]: 0.45 ± 0.08 %ID/g | Gut [2]: 2.40 ± 0.53 %ID/g | Heart [2]: 2.06 ± 0.61 %ID/g | Kidney [2]: 8.31 ± 0.81 %ID/g | Liver [2]: 0.89 ± 0.07 %ID/g | Lung [2]: 1.78 ± 0.65 %ID/g | Muscle [2]: 0.16 ± 0.04 %ID/g | Skin [2]: 0.20 ± 0.02 %ID/g | Spleen [2]: 5.63 ± 0.78 %ID/g

heart uptake [3]: 1.64 %ID/g | heart-to-blood ratio [3]: 11
SMILES: Fc1ccc([P+](c2ccccc2)(c2ccccc2)c2ccccc2)cc1 [^18F-FTPP]
